Test results reported in article PMC2857344 (2010).

How the values were obtained:
[1] = system: P27 (3MX-binding aptamer) (RNA, aptamer, 2-aminopurine at 27) GGCGAUACCAGCCGAAAGGCCAUUGGAAGCGUC; experiment: steady-state 2-aminopurine fluorescence titration; conditions: 100 mM NaCl, 10 mM MgCl2; 100 mM HEPES, 0.1 mM EDTA, pH 7.5, 25 °C; 100 nM RNA
[2] = system: WT 3MX-binding aptamer (RNA, aptamer) GGCGAUACCAGCCGAAAGGCCAUUGGAAGCGUC; experiment: ITC; conditions: 100 mM NaCl, 10 mM MgCl2; 100 mM HEPES, 0.1 mM EDTA, pH 7.5, 25 °C
[3] = system: P10 (3MX-binding aptamer) (RNA, aptamer, 2-aminopurine at 10 (replaces A10)) GGCGAUACCAGCCGAAAGGCCAUUGGAAGCGUC; experiment: ITC; conditions: 100 mM NaCl, 10 mM MgCl2; 100 mM HEPES, 0.1 mM EDTA, pH 7.5, 25 °C
[4] = system: WT theophylline-binding aptamer (RNA, aptamer) GGCGAUACCAGCCGAAAGGCCCUUGGCAGCGUC; experiment: ITC; conditions: 100 mM NaCl, 10 mM MgCl2; 100 mM HEPES, 0.1 mM EDTA, pH 7.5, 25 °C
[5] = system: P10 (theophylline-binding aptamer) (RNA, aptamer, 2-aminopurine at 10 (replaces A10)) GGCGAUACCAGCCGAAAGGCCCUUGGCAGCGUC; experiment: ITC; conditions: 100 mM NaCl, 10 mM MgCl2; 100 mM HEPES, 0.1 mM EDTA, pH 7.5, 25 °C
[6] = system: P10Z11 (theophylline-binding aptamer) (RNA, aptamer, 2-aminopurine at 10 (replaces A10); 7-deazaguanine at 11) GGCGAUACCAGCCGAAAGGCCCUUGGCAGCGUC; experiment: ITC; conditions: 100 mM NaCl, 10 mM MgCl2; 100 mM HEPES, 0.1 mM EDTA, pH 7.5, 25 °C

Compound Cn1c(=O)[nH]c(=O)c2[nH]cnc21 has a Kd [1] of 3.6 ± 0.3 µM, a Kd [2] of 2.7 ± 2.0 µM and a Kd [3] of 24 ± 5 µM. For the same compound, the Kd [4] was 1.6 ± 0.5 µM.

For Cn1c(=O)c2[nH]cnc2n(C)c1=O, the Kd [5] was 9.4 ± 0.8 µM, the Kd [4] was 0.86 ± 0.12 µM and the Kd [6] was 9.4 ± 0.7 µM.
